According to patent US6080762A, “Pulmonary and nasal delivery of raloxifene” (priority 1999, dated 2000):

What was measured:
[1] = cynomolgus monkey, in vivo
[2] = Pharmacokinetics of inhaled (pulmonary/nasal) aerosolized raloxifene in cynomolgus monkeys (Working Example 1)
Procedure: (§1) Six adult cynomolgus monkeys (three males and three females) were used for this study. Males weighed from 5.3 kg to 5.5 kg at the start of the live phase. Females weighed from 3.8 kg to 4.9 kg at the start of the live phase. Each animal was uniquely identified with a number tattooed on the inner thigh.
(§2) The animals were housed individually in stainless steel cages. Rooms were thermostatically set to maintain a temperature of 72° F. and maintain an actual temperature within 8° F. from that set point. The environmental control system is designed to maintain a relative humidity of 20% and a maximum of 80%. Light was on a 12 hour cycle, with lights on between 0600 and 1800. […] On test days, the animals were given primate chow only after the completion of the inhalation exposures. Water was available ad libitum except during exposure times.
(§3) Prior to beginning the live phase of the study, the monkeys were conditioned, over an approximately 3 month period, to be caught, handled, and placed in a restraint chair using the pole-and-collar method. Foods like peanuts, marshmallows, and a variety of dried and fresh fruits were used as training rewards. The time that the monkeys were left in the chair was increased gradually up to 8 hours. By the end of the training period, all the monkeys could be caught quickly, placed into the restraint chair easily, and would allow limb manipulation, including having blood drawn, while in the chair.
(§4) Each monkey was studied once per week for 5 weeks. Target concentrations of raloxifene activity were 0, 3, 10, 0, and 30 mg/m^3 for Weeks 1 through 5 respectively. The activity was determined by correcting the amount of raloxifene collected by the potency of the lot used. Each exposure was for 8 hours, divided into 4 hour segments with 15 minutes in between. During the 15 minute period between the 4 hour exposures, the monkeys were offered juice to drink and apple pieces to eat. The conditioning period described above had used this method to keep the animals from becoming agitated due to hunger or thirst. A 15 minute break in the exposures was not expected to affect the blood levels of raloxifene.
(§5) The monkeys were placed into the restraint prior to each exposure. Two sheets of latex (0.030 in. thick) were placed around the animal's necks to form a seal. A 7-L head dome was placed over the animal's heads as described in J. Appl. […] Airflow of 15 L/min was maintained through the head dome via a calibrated transvector on the exhaust port. The raloxifene was aerosolized using a Wright Dust Feed II. […] The aerosol then entered the head-dome for the monkey to breath.
(§6) Each day, before the monkeys were exposed, the exposure system was set up and a gravimetric sample was taken to determine the raloxifene concentration. The monkey was then placed in the chair and the aerosol was generated using the same generator settings. After the exposure to the monkey, it was removed from the chair, the system re-assembled, and another gravimetric sample taken. The concentrations derived from the 2 gravimetric samples were averaged to obtain the raloxifene concentration for that exposure. Gravimetric concentrations were determined by collecting the aerosol directly from the head-dome onto a 25 mm Gelman type A/E glass fiber filter.

[3] = cynomolgus monkey, in vivo; remark: listed apart in the source
Procedure: as §1, §2, §3, §4, §5, §6

For `O=C(c1ccc(OCCN2CCCCC2)cc1)c1c(-c2ccc(O)cc2)sc2cc(O)ccc12` [raloxifene], the breathing frequency [1] was “no significant changes”, the tidal volume [1] was “no significant changes” and the “Cmax (Mean Ralox.)” value ([2]; 8 h inhalation, exposure conc. 3.3 mg Ralox./m^3 of air, plasma) was 7 ng/mL. For the same compound, the “Cmax (Mean Ralox.)” value ([2]; 8 h inhalation, exposure conc. 9.7 mg Ralox./m^3 of air, plasma) was 17 ng/mL, the “Cmax (Mean Ralox.)” value ([2]; 8 h inhalation, exposure conc. 26.9 mg Ralox./m^3 of air, plasma) was 47 ng/mL and the “AUC ratio of raloxifene/total raloxifene” value ([2]; inhalation, 10 mg/m^3 dose group) was 0.56. For the same compound, the “AUC ratio of raloxifene/total raloxifene” value ([2]; inhalation, 30 mg/m^3 dose group) was 0.82, the “sex differences in raloxifene, total raloxifene, Cmax, or AUC values” ([2]; inhalation, males and females) was “No appreciable sex differences” and the “blood levels by pulmonary/nasal delivery relative to oral administration” value ([2]; oral administration at an equivalent dose as comparison) was “considerably higher than those obtained following oral administration”. The bioavailability ([2]; pulmonary/nasal delivery) was “unexpected high level of bioavailability”, the “Cmax (Mean Tot. Ralox.)” value ([2]; total raloxifene, 8 h inhalation, exposure conc. 26.9 mg Ralox./m^3 of air, plasma) was 84 ng/mL and the “blood levels of raloxifene (level and duration)” value [3] was “relatively higher blood levels of raloxifene which lasted for several hours”. The “initial levels of unmetabolized raloxifene absorbed into the blood” value [3] was “higher, relative to oral delivery”.
